Measurements as given in paper PMC12381739, “Druglike Molecular Degraders of the Oncogenic RNA-Binding Protein HuR” (JACS Au, 2025).

Key:
HuR [1] = target: T1, HuR (Homo sapiens, UniProt Q15717); assay: HuR protein expression by western blot in MCF-7 cells; type: cell-based; set-up: endogenous in cells; host or cells: MCF-7
Text: Michigan Cancer Foundation-7 (MCF-7) cells were chosen due to their documented overexpression of HuR, which has been linked to cancer pathogenicity in this specific cell line. , Consequently, reducing HuR expression to physiologically normal levels is considered a potential strategy for novel anticancer therapies targeting breast cancers associated with HuR overexpression.
Total protein was extracted using RIPA cell lysis buffer (BioPrep) containing a protease inhibitor, and protein concentration was measured using the BCA protein assay (Sigma-Aldrich) according to the manufacturer’s protocol. Approximately 30 μg of total protein were resolved on a 12% SDS-acrylamide gel and transferred to a PVDF membrane (Immobilon FL transfer membrane; Merck). The membrane was washed with 1× Tris-buffered saline (TBS) containing 0.1% (v/v) Tween-20 (TBST; Tris-base, pH 7.6, NaCl, and Tween-20) and blocked in 1× TBST containing 5% (w/v) BSA for 2 h at room temperature. The membrane was then incubated overnight at 4 °C with primary antibodies: a 1:1000 dilution of rabbit anti-ELAVL1/HuR (Cell Signaling Technology, #12582), a 1:1000 dilution of mouse anti-Bcl2 (Cell Signaling Technology, #15071), or a 1:10,000 dilution of rabbit anti-Vinculin (Cell Signaling Technology, #13901) in 1× TBST containing 5% (w/v) BSA. Following primary antibody incubation, the membrane was washed with 1× TBST and incubated with a 1:10,000 dilution of the appropriate horseradish-peroxidase-conjugated secondary antibody (antirabbit IgG: Cell Signaling, #7074 or antimouse IgG: Cell Signaling, #7076) at room temperature for 2 h. After washing three times with 1X TBST (10 min per wash), protein bands were visualized using Clear Band ECL Substrate (Gene Bio-Application) on the Azure C300 Imaging System. The fold change in the expression of the target proteins (HuR or Bcl2) was calculated by normalizing the band intensity to the Vinculin band intensity using ImageJ.

HuR [2] = target: T1, HuR; assay: Fluorescence binding assay using intrinsic fluorescence of the PROTAC with titrated HuR protein; conditions: fixed 100 μM degrader, increasing HuR; fluorescence rises over 0.0075–0.1 nM and 0.125–1 nM
Procedure: To elucidate the mechanism underlying the observed biphasic degradation pattern, we generated a docking model using the Schrödinger software. […] This preferential binding correlates with the initial phase of degradation observed at low degrader concentrations (5 nM to 100 nM; Figures B and B and ). At higher degrader concentrations (e.g., 10 μM), different complex engagement may occur at the P2 RNA-binding pocket. […] Unlike the previous displacement assay–which monitored competition between labeled RNA and HuR–we utilized the intrinsic fluorescence of the PROTAC derivative at a fixed concentration while titrating HuR protein. This approach allowed us to detect fluorescence changes corresponding to HuR binding events. […] Fluorescence increased over two separate concentration ranges–0.0075–0.1 nM and 0.125–1 nM–with a clear dip between 0.1 and 0.125 nM. […]
As part of the dual-binding evaluation, Pro-HuR3 fluorescence was first characterized across a concentration range (1–100 μM; 1, 2, 5, 10, 20, 50, and 100 μM). The assays were performed in PBS buffer (20 mM sodium phosphate, 150 mM NaCl, 1 mM dithiothreitol, 0.05% PLURONIC-127, 15% DMSO) at 293 K. Fluorescence spectra were recorded using the Synergy H1 Hybrid Multi-Mode Microplate Reader (Biotek, Agilent), with excitation and emission scans identifying optimal wavelengths of 405–415 nm (excitation) and 520 nm (emission), respectively. […]

Bcl2 and FOXQ1 mRNA = assay: mRNA RT-qPCR of Bcl2 and FOXQ1 in MCF-7 cells; type: cell-based, human
Procedure: MCF-7 cells were seeded into 12-well plates (∼150,000 cells per well) at 60–70% confluency incubated for 12 h. The cells were then treated with different synthesized compounds at the indicated concentrations or with vehicle control for 24 and 48 h. After treatment, total RNA was extracted using the QuickRNA Miniprep Kit (Zymo Research) according to the manufacturer’s protocol, including DNase I treatment. Reverse transcription was performed on 1 μg of total RNA using the qScript cDNA Synthesis Kit (Quantabio) following the manufacturer’s instructions. Approximately 30 ng of cDNA were used for each qPCR reaction, which was carried out using the Luna Universal qPCR Master Mix (New England BioLabs, cat# E3010G) on a CFX Opus 384 Real-Time PCR System. Relative expression levels of Bcl-2 and FOXQ1 were calculated by normalizing to GAPDH expression using the ΔΔCt method.

T1 sequence (Q15717 whole entry): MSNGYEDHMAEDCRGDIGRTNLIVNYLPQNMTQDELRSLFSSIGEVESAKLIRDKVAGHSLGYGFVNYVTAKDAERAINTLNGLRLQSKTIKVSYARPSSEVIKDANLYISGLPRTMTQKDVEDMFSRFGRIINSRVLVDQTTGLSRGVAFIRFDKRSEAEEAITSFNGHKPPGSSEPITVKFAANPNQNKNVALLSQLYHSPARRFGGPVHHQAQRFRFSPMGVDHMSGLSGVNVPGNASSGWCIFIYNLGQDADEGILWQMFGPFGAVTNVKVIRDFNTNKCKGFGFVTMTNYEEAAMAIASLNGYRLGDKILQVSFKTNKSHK

reduction of HuR expression (HuR [1]; MCF-7, 10 nM, 48 h): 42%
onset of activity (HuR degradation) (HuR [1]; MCF-7, 10 μM): 48 h
time-dependent response of HuR degradation (HuR [1]; MCF-7, 10 μM): showed a time-dependent response
reduction of HuR expression (HuR [1]; MCF-7, 10 μM, 48 h): ~75%
degrader activity at intermediate concentration (hook effect) (HuR [1]; around 0.1 μM, 48 h, MCF-7 and MDA-MB-231): loss of degrader activity
binding response on HuR titration (intrinsic fluorescence) (HuR [2]): two distinct IC50 values
SMILES: O=C1CCC(N2C(=O)c3cccc(NCc4cn(-c5ccc6sc(C(=O)O)cc6c5)nn4)c3C2=O)C(=O)N1 (centres unmarked) [PRO-HuR3]
Bcl2 mRNA expression relative to lower concentrations (Bcl2 and FOXQ1 mRNA; MCF-7, 1 μM): increase in Bcl2 expression
Bcl2 and FOXQ1 mRNA expression (Bcl2 and FOXQ1 mRNA; MCF-7, concentrations ranging from 1 nM to 100 nM): decrease in the expression of both genes
